The values that follow come from PubChem BioAssay (NCI).

Test systems include SK-MEL-2 melanoma; OVCAR-4 ovarian; SNB-19 CNS; UO-31 renal; TK-10 renal; RXF 393 renal; HCT-15 colon; A498 renal; CAKI-1 renal; CCRF-CEM leukemia.
What all share (assay): NCI tumour cell line growth inhibition, 48 h

“And” between values parts separate entries of the source, which are not always exact repeats. Equal values may be shown once.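 Assay format: 96-well plates, 48-hour exposure. Abbreviation: GI50, concentration required for 50% inhibition of growth. The concentration for full growth arrest is given as TGI.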

Take `COc1cc([C@@H]2c3cc4c(cc3[C@@H](NCc3cccc(F)c3)C3COC(=O)[C@@H]32)OCO4)cc(OC)c1O` (stereo partly specified): the TGI with SK-MEL-2 melanoma is 29.5 µM; in the assay with OVCAR-4 ovarian it was over 65 µM; with SNB-19 CNS it was over 65 µM; with UO-31 renal it was 14.3 µM; with TK-10 renal, 40.9 µM; in the assay with RXF 393 renal it was 45.3 µM. Besides, the TGI in the assay on HCT-15 colon was found to be 20.5 µM; in the assay on A498 renal, 13.1 µM; in the assay with CAKI-1 renal, 51.4 µM; with CCRF-CEM leukemia it was 18.1 µM.
As to `CC/C(C)=C1\CCC(CN(C)C)C1=O` (stereo unspecified), the TGI was 32.5 µM with SK-MEL-2 melanoma; 32 µM in the assay with OVCAR-4 ovarian; over 100 µM in the assay with SNB-19 CNS; 35.4 µM with UO-31 renal; 31.1 µM with TK-10 renal; 40.4 µM in the assay on RXF 393 renal. The TGI stood at 29.2 µM with HCT-15 colon, 37.5 µM in the assay on A498 renal, 4.36 µM in the assay on CAKI-1 renal and 39.8 µM with CCRF-CEM leukemia.
Regarding `Oc1ccc(O)c(-n2cccn2)c1-n1cccn1`, the TGI in the assay with SK-MEL-2 melanoma, with OVCAR-4 ovarian, in the assay on SNB-19 CNS, in the assay with UO-31 renal, in the assay with TK-10 renal and with RXF 393 renal was over 100 µM throughout. Moreover, the TGI in the assay on HCT-15 colon was over 100 µM; in the assay on A498 renal it was over 100 µM; in the assay with CAKI-1 renal, over 100 µM; in the assay with CCRF-CEM leukemia it was over 10 µM.
In the case of `COC(=O)c1cc(C)[nH]c2c(C)cc3nc4ccccc4c3c12`, the GI50 is 13.2 µM in the assay on SK-MEL-2 melanoma; 12.5 µM in the assay on OVCAR-4 ovarian; 12.7 µM with SNB-19 CNS; 4.46 µM in the assay with UO-31 renal; 5.73 µM in the assay with TK-10 renal; 11.6 µM with RXF 393 renal. Further, the GI50 in the assay on HCT-15 colon is 5.19 µM; in the assay on A498 renal, 6.07 µM; with CAKI-1 renal, 2.89 µM; in the assay on CCRF-CEM leukemia, 5.23 µM. In addition, the TGI in the assay with SK-MEL-2 melanoma was found to be 28.8 µM; in the assay on OVCAR-4 ovarian, 25.3 µM; in the assay with SNB-19 CNS, 29.5 µM; in the assay with UO-31 renal it was 19.1 µM; in the assay with TK-10 renal it was 19.5 µM; in the assay on RXF 393 renal, 25 µM. In addition, the TGI was determined as 22.2 µM in the assay on HCT-15 colon, 21.2 µM in the assay on A498 renal, 13.4 µM in the assay on CAKI-1 renal and 86.4 µM with CCRF-CEM leukemia.
On to `c1ccc(-c2cc3n4c(-c5ccccc5)nn(-c5ccccc5)c4cnc-3n2)cc1`, for which the GI50 is over 50 µM with SK-MEL-2 melanoma; 31.3 µM in the assay with OVCAR-4 ovarian; 12.5 µM in the assay with SNB-19 CNS; over 50 µM in the assay on UO-31 renal; 19.3 µM with TK-10 renal; 4.16 µM in the assay with RXF 393 renal. Besides, the GI50 in the assay on HCT-15 colon is over 50 µM; in the assay with A498 renal, 12.1 µM; in the assay on CAKI-1 renal, 15.1 µM; with CCRF-CEM leukemia, over 50 µM. The TGI in the assay on SK-MEL-2 melanoma was over 50 µM; in the assay with OVCAR-4 ovarian it was over 50 µM; in the assay on SNB-19 CNS, over 50 µM; with UO-31 renal, over 50 µM; with TK-10 renal, over 50 µM; in the assay on RXF 393 renal, 33.8 µM. The TGI with HCT-15 colon, in the assay with A498 renal, in the assay with CAKI-1 renal and with CCRF-CEM leukemia was over 50 µM in each case.
For `CC(=O)OC1=C(CC(C)(C)C)C(=O)c2ccccc2C1=O`, the TGI is 99.4 µM with SK-MEL-2 melanoma; over 100 µM in the assay on OVCAR-4 ovarian; over 100 µM in the assay with SNB-19 CNS; over 100 µM with UO-31 renal; over 100 µM with TK-10 renal; 82.7 µM with RXF 393 renal. Moreover, the TGI in the assay on HCT-15 colon was over 100 µM; with A498 renal it was 48.3 µM; with CAKI-1 renal it was over 100 µM; in the assay on CCRF-CEM leukemia it was 55.6 µM.
Regarding `O=C1CC2OCC=C3CN4CCC5(C(=O)O)C(N1)C2C3CC45` (stereo unspecified), the TGI in the assay on SK-MEL-2 melanoma, in the assay on OVCAR-4 ovarian, in the assay on SNB-19 CNS, in the assay with UO-31 renal, in the assay with TK-10 renal and with RXF 393 renal was over 100 µM in each case. The TGI in the assay on HCT-15 colon, with A498 renal, in the assay on CAKI-1 renal and in the assay on CCRF-CEM leukemia was over 100 µM each time.
For the compound `COC(=O)Nc1nc2ccc(C(=O)c3cccs3)cc2[nH]1`, the GI50 in the assay with SK-MEL-2 melanoma was 20 µM; in the assay with SNB-19 CNS, 0.359 µM; with UO-31 renal, 3.23 µM; with HCT-15 colon it was 0.106 µM; in the assay with A498 renal, 0.203 µM; in the assay with CAKI-1 renal, 0.232 µM. Moreover, the GI50 in the assay with CCRF-CEM leukemia was 0.124 µM. In addition, the TGI is 12.1 µM and > 100 µM with SK-MEL-2 melanoma; 70.9 µM and > 100 µM in the assay on OVCAR-4 ovarian; 42.5 µM and > 100 µM in the assay on SNB-19 CNS; 38.2 µM and > 100 µM with UO-31 renal; 60.4 µM and > 100 µM with TK-10 renal; 1.36 µM with RXF 393 renal. The TGI in the assay on A498 renal is 1.58 µM; in the assay on CAKI-1 renal, 56.3 µM and > 100 µM; in the assay with CCRF-CEM leukemia, 19.8 µM and > 100 µM.
On to `CC(CC(=O)Nc1ccc(NC(=O)CC(C)N=NC(N)=O)cc1)N=NC(N)=O` (stereo unspecified), for which the TGI in the assay on SK-MEL-2 melanoma, in the assay with OVCAR-4 ovarian, in the assay on SNB-19 CNS, in the assay on UO-31 renal, in the assay on TK-10 renal and in the assay with RXF 393 renal was over 100 µM in each case. Also, the TGI was 33.6 µM in the assay on HCT-15 colon, over 100 µM in the assay with A498 renal, over 100 µM with CAKI-1 renal and over 100 µM in the assay on CCRF-CEM leukemia.
For `Cc1ccc(C)c(NC(=O)C(=O)Nn2c(=S)[nH]c3ccccc3c2=O)c1`, the TGI in the assay on SK-MEL-2 melanoma, with OVCAR-4 ovarian, in the assay on SNB-19 CNS, with UO-31 renal, in the assay with TK-10 renal and with RXF 393 renal was over 100 µM throughout. Also, the TGI with HCT-15 colon, in the assay on A498 renal, in the assay on CAKI-1 renal and with CCRF-CEM leukemia was over 100 µM throughout.
With `C[C@H]1CC[C@@H]2[C@@H](C)[C@H]3[C@H](C[C@H]4[C@@H]5CC=C6C[C@@H](O)CC[C@]6(C)[C@H]5CC[C@]34C)N2C1`, the TGI with SK-MEL-2 melanoma is over 100 µM; with OVCAR-4 ovarian, over 100 µM; with SNB-19 CNS it was over 100 µM; with UO-31 renal it was over 100 µM; in the assay on TK-10 renal it was over 100 µM; with RXF 393 renal it was 46.1 µM. Besides, the TGI in the assay on HCT-15 colon was over 100 µM; in the assay on A498 renal it was 41.7 µM; in the assay with CAKI-1 renal it was over 100 µM; with CCRF-CEM leukemia it was over 100 µM.
